Results reported in patent US10233201B2, “Class of HDAC inhibitors expands the renal progenitor cells population and improves the rate of recovery from acute kidney injury” (University of Pittsburgh—Of the Commonwealth System of …, priority 2012, dated 2019).
“And” between values parts separate entries of the source, which are not always exact repeats. Equal values may be shown once. Read-outs that look alike come from different tables or passages of the source.

Legend:
zebrafish larvae = assay: Phenotypic scoring of edema and survival in zebrafish larvae at 72 hpf; format: in vivo; conditions: for larval phenotype in phenotypic screen of analogs: 3 μM, 2 to 72 hpf; for phenotype in initial chemical screen: 10 μM, larvae at 72 hpf
From the text: (§1) PTBA was synthesized as described below. Hydroxyurea and aphidicolin were obtained from Sigma-Aldrich.
Wild type: no visible edema or developmental delay.

[1] = test system: renal progenitor cells (lhx1a expression); assay: In situ hybridization for lhx1a expression in 10-somite embryos (renal progenitor cell expansion); format: in vivo; conditions: for lhx1a expansion class, 3 μM / embryos with expanded lhx1a expression (% expansion): 3 μM from 2 hpf, 10-somite embryos; for Expansion of Cells, 400 nM / Expansion of Cells, 800 nM / Expansion of Cells, 1.5 μM / Expansion of Cells, 200 nM: lhx1a in situ hybridization, includes repeats* and recounts; for lhx1a expansion class, 200 nM: 200 nM from 2 hpf; for lhx1a expansion class, 400 nM: 400 nM from 2 hpf; for lhx1a expansion class, 800 nM: 800 nM from 2 hpf
Procedure: as §1
(§2) In situ hybridization and immunocytochemistry: In situ hybridization was performed as previously described with some modifications. 142 Hybridization temperature was 65° C. Embryos were blocked in 2% blocking reagent (Roche) with 5% sheep serum in MAB (100 mM maleic acid and 150 mM NaCl [pH 7.5]). Whole-mount immunocytochemistry with 1:25 mouse anti-α6F antibody (Developmental Studies Hybridoma Bank) and 1:100 Cy3 secondary antibody (Jackson ImmunoResearch) was performed as described previously. 108 Embryos were embedded in JB-4 for sectioning per the manufacturer's instructions (Polysciences), sectioned at 5 μm, and mounted with Cytoseal 60 (Richard-Allan Scientific).
The remaining PTBA analogs were synthesized.
In situ hybridization for lhx1a was performed as described above. […] Compounds were classified as effective, partially-effective or ineffective based on comparison to the effects of PTBA at a given concentration.
Testing of the compounds is on-going, but for those tested, Table 3 provides first pass EC50s based upon colormetric in situ hybridizations for the Lhx1a mRNA expression levels. After the procedure is run, in situ hybridization is done for the lhx1 mRNA expression and the number of embryos that show an expanded kidney field is manually counted to establish the percent of embryos showing expansion. Then the EC50 is determined by plotting the percent expansion in Excel, graphing the results and using the trendline function to determine the 50 percent point. […] For UPHD-00186, the 4 values for EC50 are shown in Table 3 for the corresponding expression in zebrafish embryos employed an artificial intelligence-based image analysis method termed cognition network technology (CNT) for n=4.

[2] = test system: pax2a, pax8 expression (kidney field); assay: In situ hybridization for renal progenitor markers pax2a, pax8 / kidney field; format: in vivo, zebrafish; conditions: screen hits, data not shown
Procedure: as §1, §2

[3] = test system: human HDACs (HeLa cell nuclear extract); assay: Fluorescence histone deacetylation assay with HeLa cell nuclear extract; format: biochemical; conditions: 5 mM compound, 10 μg HeLa extract
Procedure: To evaluate this in vitro, the deacetylation of a fluorescent peptide substrate was measured in the presence of human HDACs.
In vitro HDAC activity assays were performed using a fluorescence HDAC assay kit (Active Motif) according to the manufacturer's instructions. For maintaining compound solubility at 5 mM, the final DMSO concentration in all assay wells was increased to 5%. Fluorescence was detected using an M5 Plate Reader ([…])

[4] = test system: mouse models of unilateral ureteral obstruction (UUO); assay: Unilateral ureteral obstruction (UUO); format: in vivo; conditions: IP days 0 to 6, kidneys harvested at day 7
From the text: The model of unilateral ureteral obstruction generates progressive renal fibrosis. Surgically created UUO can be experimentally manipulated with respect to timing, severity, and duration, while reversal of the obstruction permits the study of recovery.
FIG. 47 represents the results of the testing of compounds UPHD-00022, UPHD-00025 (PTBA), UPHD-00029, UPHD-00036, and UPHD-00186, for their efficacy in mouse models of unilateral ureteral obstruction (UUO) as follows: in the UUO models, one ureter was ligated for 7 days and compounds were delivered via IP for days 0 to 6. At day 7 kidneys were harvested for Sirius red staining. […] Therefore, in the models tested, the only compound proven to be effective in all models and with significant delayed onset of treatment is UPHD-186.

[5] = Danio rerio, 400 nM, read-out: embryos with expanded lhx1a expression (% expansion)
[6] = Danio rerio, 800 nM, read-out: embryos with expanded lhx1a expression (% expansion)

Compound: Nc1ccccc1NC(=O)c1ccc(CNC(=O)OCc2cccnc2)cc1 [MS-275, reference compound]
- larval phenotype in phenotypic screen of analogs (zebrafish larvae): showed no effect on zebrafish embryos
- lhx1a expansion class, 3 μM [1]: −

Compound: O=C(CCCCCSc1ccccc1)Nc1ccccc1O [UPHD-00187, N-(2-hydroxyphenyl)-6-(phenylsulfanyl) hexanamide]
- Expansion of Cells, 400 nM [1]: 58%
- Expansion of Cells, 800 nM [1]: 52%
- Expansion of Cells, 1.5 μM [1]: 52%

Compound: N=C(N)SCc1ccc(Cl)cc1Cl.O=[N+]([O-])c1c(O)c(Cl)cc(Cl)c1Cl [NSC35400]
- phenotype in initial chemical screen (zebrafish larvae): generated pericardial edema
- effect on size of the kidney field / renal markers (in situ hybridization) [2]: did not affect the size of the kidney field

Compound: COc1ccc(/C=C(\C#N)C(N)=O)c(OC)c1 [NSC134664]
- phenotype in initial chemical screen (zebrafish larvae): generated pericardial edema
- effect on size of the kidney field / renal markers (in situ hybridization) [2]: did not affect the size of the kidney field

Compound: O=C(O)CCCS(=O)(=O)c1ccccc1 [PSOBA, 4-(phenylsulfonyl)butanoic acid, reference compound]
- HDAC activity, % of the control value [3]: 70%
- embryos with expanded lhx1a expression (% expansion) [1]: no ability to expand renal progenitor cells

Compound: CCC(=O)CCCCC[C@@H]1NC(=O)[C@H]2CCCCN2C(=O)[C@H]([C@@H](C)CC)NC(=O)[C@H](Cc2cn(OC)c3ccccc23)NC1=O [apicidin, reference compound]
- lhx1a expansion class, 200 nM [1]: −
- lhx1a expansion class, 400 nM [1]: +/−
- lhx1a expansion class, 800 nM [1]: XX^1
- embryos surviving treatment ([1]; 800 nM, n=36): 31%
- treated embryos killed ([1]; 800 nM, n=36): 69%
- lethality before the 10-somite stage ([1]; 1.5 μM): lethal
- lethality before the 10-somite stage ([1]; 3 μM): killed all treated embryos
- responders at 0.4 µM ([1]; Danio rerio, read-out: embryos with expanded lhx1a expression (% expansion), 400 nM): 22%

Compound: COC(=O)CCCSc1ccc(F)cc1 [methyl 4-[(4-fluorophenyl)thio]butanoate]
- lhx1a expansion class, 200 nM [1]: +/−
- lhx1a expansion class, 400 nM [1]: +/−
- lhx1a expansion class, 800 nM [1]: +
- lethality before the 10-somite stage ([1]; 3 μM): killed all treated embryos
- responders at 0.2 µM ([1]; Danio rerio, 200 nM, read-out: embryos with expanded lhx1a expression (% expansion)): 22%
- responders at 0.4 µM [1, 5]: 26%
- responders at 0.8 µM [1, 6]: 64%

Compound: CC(C)(C)OC(=O)CCCSc1ccccc1 [tert-butyl 4-(phenylthio)butanoate]
- larval phenotype in phenotypic screen of analogs (zebrafish larvae): did not cause a statistically-significant decrease in the number of wild-type larval phenotypes

Compound: 2-amino-PTBA [Compound 2-amino-PTBA, reference compound]
- embryos with expanded lhx1a expression (% expansion) [1]: no expansion

Compound: O=C(O)CCCSc1ccc2ccccc2c1 [4-(naphthalen-2-ylthio)butanoic acid, reference compound]
- embryos with expanded lhx1a expression (% expansion) ([1]; listed as 4-(napthalen-2-ylthio)butanoic acid): no expansion

Compound: O=C(CCCCCCC(=O)Nc1ccccc1)NO [SAHA, reference compound]
- larval phenotype in phenotypic screen of analogs (zebrafish larvae): showed no effect on zebrafish embryos
- lhx1a expansion class, 3 μM [1]: −

Compound: O=C(CCCSc1ccc(F)cc1)NO [UPHD-00029, 4-[(4-fluorophenyl)sulfanyl]-N-hydroxybutanamide]
- fibrosis (Sirius red) and expression of fibrosis markers in UUO kidney [4]: reduce both fibrosis and expression of fibrosis markers
- lhx1a expansion class, 200 nM [1]: −
- lhx1a expansion class, 400 nM [1]: +/−
- lhx1a expansion class, 800 nM [1]: +
- responders at 0.4 µM [1, 5]: 35%
- responders at 0.8 µM [1, 6]: 60%
- Expansion of Cells, 200 nM [1]: 6.25%
- Expansion of Cells, 800 nM [1]: 60% and 33%
- Expansion of Cells, 1.5 μM [1]: 82.4%

Compound: Cn1cc(C(=O)Cc2ccccc2)cc1/C=C/C(=O)NO [APHA compound 8, reference compound]
- lhx1a expansion class, 3 μM [1]: −

Compound: Nc1ccccc1NC(=O)CCCCSCc1ccccc1 [UPHD-00188, N-(2-aminophenyl)-5-(benzysulfanyl) pentanamide]
- Expansion of Cells, 800 nM [1]: 0%
- Expansion of Cells, 1.5 μM [1]: 0%

Compound: O=C(CCCSc1ccc(Cl)cc1)NO [4-[(4-chlorophenyl)thio]-N-hydroxybutanamide]
- lhx1a expansion class, 800 nM [1]: +/−

Compound: CCCOC(=O)CCCSc1ccccc1 [propyl 4-(phenylthio)butanoate]
- lhx1a expansion class, 800 nM [1]: +/−

Compound: COC(=O)CCCSc1ccc(C)cc1 [methyl 4-[(4-methylphenyl)thio]butanoate]
- lhx1a expansion class, 200 nM [1]: −
- lhx1a expansion class, 400 nM [1]: −
- lhx1a expansion class, 800 nM [1]: +
- responders at 0.8 µM [1, 6]: 49%

Compound: Nc1ccccc1NC(=O)CCCSc1ccccc1 [UPHD-00036, N-(2-aminophenyl)-4-(phenylsulfanyl)butanamide]
- fibrosis (Sirius red) and expression of fibrosis markers in UUO kidney [4]: reduce both fibrosis and expression of fibrosis markers

Compound: O=C(CCCCCCC(=O)Nc1ccc([C@H]2O[C@@H](CSc3nc(-c4ccccc4)c(-c4ccccc4)o3)C[C@@H](c3ccc(CO)cc3)O2)cc1)NO [tubacin]
- larval phenotype in phenotypic screen of analogs (zebrafish larvae): appeared wild-type

Compound: Nc1ccccc1NC(=O)CCCSCCc1ccccc1 [UPHD-00190, N-(2-aminophenyl)-4-[(2-phenylethyl)sulfanyl]butanamide]
- expansion ([1]; 0.055 μM): 72%
- Expansion of Cells, 200 nM [1]: 50%
- Expansion of Cells, 400 nM [1]: 0%
- Expansion of Cells, 800 nM [1]: 0%
- Expansion of Cells, 1.5 μM [1]: 0%

Compound: O=C(O)c1cccc(Sc2ccccc2)c1 [3-(phenylthio)benzoic acid, reference compound]
- embryos with expanded lhx1a expression (% expansion) [1]: no expansion

Compound: Cc1ccc(SCCCC(=O)NO)cc1 [N-hydroxy-4-[(4-methylphenyl)thio]butanamide]
- lhx1a expansion class, 200 nM [1]: −
- lhx1a expansion class, 400 nM [1]: −
- lhx1a expansion class, 800 nM [1]: +
- responders at 0.8 µM [1, 6]: 61%

Compound: N=C(N)c1ccc(N=Nc2c(O)ccc3c2[nH]c2ccccc23)cc1 [NSC357777]
- phenotype in initial chemical screen (zebrafish larvae): generated pericardial edema
- effect on size of the kidney field / renal markers (in situ hybridization) [2]: did not affect the size of the kidney field

Compound: CCC(C)OC(=O)CCCSc1ccccc1 (stereo not shown) [butan-2-yl 4-(phenylthio)butanoate]
- lhx1a expansion class, 800 nM [1]: +/−

Compound: CCCC(CCC)C(=O)O [valproic acid]
- larval phenotype in phenotypic screen of analogs (zebrafish larvae): generated edemic and/or lethal phenotypes

Compound: O=C(CCCSc1ccccc1)NO [N-hydroxy-4-(phenylthio)butanamide]
- lhx1a expansion class, 800 nM [1]: +/−

Compound: O=C(O)CCCCc1ccccc1 [5-phenylpentanoic acid, reference compound]
- embryos with expanded lhx1a expression (% expansion) [1]: no expansion
